Data reported in patent US7030145B2, “Pyridinyl derivatives for the treatment of depression” (Bristol-Myers Squibb Company, priority 2003, dated 2006).

Key:
[1] = molecular target: T1, cloned human CRF-R1 receptors (Homo sapiens, UniProt P34998); experiment: CRF-R1 receptor binding assay (inhibition of 125I-ovine-CRF binding to cell membranes); details: membranes of 293EBNA cells transfected with hCRFR1, class d = reported as percent inhibition at 10 μM, figures not given, read-out: activity (Ki class in the CRF assays)
T1 construct: the coding region was amplifies by PCR from start to stop codons; expressed in transfected cells; membranes
T1 sequence (P34998 24-415): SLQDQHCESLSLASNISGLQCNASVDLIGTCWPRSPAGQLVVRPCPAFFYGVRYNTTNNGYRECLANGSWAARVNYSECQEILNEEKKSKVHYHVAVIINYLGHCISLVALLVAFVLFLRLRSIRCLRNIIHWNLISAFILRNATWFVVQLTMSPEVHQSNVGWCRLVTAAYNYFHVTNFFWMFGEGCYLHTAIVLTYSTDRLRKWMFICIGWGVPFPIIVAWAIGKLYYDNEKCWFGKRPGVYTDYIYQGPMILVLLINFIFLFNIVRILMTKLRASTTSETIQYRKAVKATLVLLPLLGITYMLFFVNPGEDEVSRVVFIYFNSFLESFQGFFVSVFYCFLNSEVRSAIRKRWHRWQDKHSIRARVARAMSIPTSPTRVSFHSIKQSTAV
Description: The following is a description of the isolation of cell membranes containing cloned human CRF-R1 receptors for use in a standard binding assay as well as a description of the assay itself.
Messenger RNA was isolated from human hippocampus. […]. The mRNA was reverse transcribed using oligo (dt) 12–18 and the coding region was amplifies by PCR from start to stop codons. The resulting PCR fragment was cloned into the EcoRV site of pGEMV, from whence the insert was reclaimed using XhoI+XbaI and cloned into the XhoI+XbaI sites of vector pm3 as (which contains a CMV promoter, the SV′t′ splice and early poly A signals, an Eptein-Barr viral origin of replication, and a hygromycin selectable marker). The resulting expression vector, called phchCRFR was transfected in 293EBNA cells and cells retaining the episome were selected in the presence of […] hygromycin. Cells surviving 4 weeks of selection in hygromycin were pooled, adapted to growth in suspension and used to generate membranes for the binding assay described below. Individual aliquots containing approximately 1×10^8 of the suspended cells were then centrifuged to form a pellet and frozen. For the binding assay a frozen pellet described above containing 293EBNA cells transfected with hCRFR1 receptors is homogenized in 10 mL of ice cold tissue buffer (50 mM HEPES buffer pH 7.0, containing 10 MM MgCl2, 2 mM EGTA, 1 μg/mL apotinin, 1 μg/mL leupeptin and 1 μg/mL pepstatin). The homoginate is centrifuged at 40,000×g for 12 min and the resulting pellet rehomogenized in 10 mL of tissue buffer. After another centrifugation at 40,000×g for 12 min, the pellet is resuspended to a protein concentration of 360 μg/mL to be used in the assay.
Binding assays are performed in 96 well plates; each well having a 300 μL capacity. To each well is added 50 μL of test drug dilutions (final concentration of drugs range from 10^−10–10^−5 M), 100 μL of ^125I-ovine-CRF (^125I-o-CRF) (final concentration 150 pM) and 150 μL of the cell homoginate described above. Plates are then allowed to incubate at room temperature for 2 hours before filtering the incubate over GF/F filters (presoaked with 0.3% polyethyleneimine) using an appropriate cell harvester. Filters are rinsed 2 times with ice cold assay buffer before removing individual filters and assessing them for radioactivity on a gamma counter.
Curves of the inhibition of ^125I-o-CRF binding to cell membranes at various dilutions of test drug are analyzed by the iterative curve fitting program LIGAND [P. J. Munson and D. Rodbard, Anal. Biochem., 107:220 (1980), which provides Ki values for inhibition which are then used to assess biological activity. […]
Messenger RNA was isolated from human hippocampus. The mRNA was isolated from human hippocampus. The mRNA was reverse transcribed using oligo (dt) 12–18 and the coding region was amplifies by PCR from start to stop codons. The resulting PCR fragment was cloned into the EcoRV site of pGEMV, from whence the insert was reclaimed using XhoI+XbaI and cloned into the XhoI+XbaI sites of vector pm3 as (which contains a CMV promoter, the SV′t′ splice and early poly A signals, an Eptein-Barr viral origin of replication, and a hygromycin selectable marker). The resulting expression vector, called phchCRFR was transfected in 293EBNA cells and cells retaining the episome were selected in the presence of […] hygromycin. Cells surviving 4 weeks of selection in hygromycin were pooled, adapted to growth in suspension and used to generate membranes for the binding assay described below. […]
A frozen pellet described above containing 293EBNA cells transfected with hCRFR1 receptors or the rat frontal cortex tissue dissected from frozen rat brains was prepared as the source of membranes expressing CRF1 receptors used in binding assays. […]

Structure (SMILES)	Ki [1] [nM]	melting point [°C]
Cc1cc(C)c(Nc2nc(C)ccc2S(=O)(=O)c2ccc(OCc3ccc(C#N)cc3)cc2)c(C)c1 [Example 23, 4-{4-[6-Methyl-2-(2,4,6-trimethylphenylamino)-pyridine-3-sulfonyl]-phenoxymethyl}-benzonitrile]	100 to 500	208 to 210
Cc1cc(C)c(Nc2nc(C)ccc2S(=O)(=O)c2ccc(OCc3cccc(C#N)c3)cc2)c(C)c1 [Example 24, 3-{4-[6-Methyl-2-(2,4,6-trimethylphenylamino)-pyridine-3-sulfonyl]-phenoxymethyl}-benzonitrile]	≤ 100	155 to 158
COC(=O)c1cccc(COc2ccc(S(=O)(=O)c3ccc(C)nc3Nc3c(C)cc(C)cc3C)cc2)c1 [Example 25, 3-{4-[6-Methyl-2-(2,4,6-trimethylphenylamino)-pyridine-3-sulfonyl]-phenoxymethyl}-benzoic acid methyl ester]	≤ 100	148 to 150
COc1cccc(COc2ccc(S(=O)(=O)c3ccc(C)nc3Nc3c(C)cc(C)cc3C)cc2)c1 [Example 26, {3-[4-(3-Methoxybenzyloxy)-benzenesulfonyl]-6-methylpyridin-2-yl}-(2,4,6-trimethylphenyl)-amine]	≤ 100	124 to 126
COc1ccccc1COc1ccc(S(=O)(=O)c2ccc(C)nc2Nc2c(C)cc(C)cc2C)cc1 [Example 27, {3-[4-(2-Methoxybenzyloxy)-benzenesulfonyl]-6-methylpyridin-2-yl}-(2,4,6-trimethylphenyl)-amine]	≤ 100	148 to 150
Cc1cc(C)c(Nc2nc(C)ccc2S(=O)(=O)c2ccc(OCc3ccccc3C#N)cc2)c(C)c1 [Example 28, 2-{4-[6-Methyl-2-(2,4,6-trimethylphenylamino)-pyridine-3-sulfonyl]-phenoxymethyl}-benzonitrile]	≤ 100	208 to 210
Cc1cc(C)c(Nc2nc(C)ccc2S(=O)(=O)c2ccc(OCc3ccccc3[N+](=O)[O-])cc2)c(C)c1 [Example 29, {6-Methyl-3-[4-(2-nitrobenzyloxy)-benzenesulfonyl]-pyridin-2-yl}-(2,4,6-trimethylphenyl)-amine]	≤ 100	153 to 155
COc1cc(COc2ccc(S(=O)(=O)c3ccc(C)nc3Nc3c(C)cc(C)cc3C)cc2)cc(OC)c1 [Example 30, {3-[4-(3,5-Dimethoxybenzyloxy)-benzenesulfonyl]-6-methyl-pyridin-2-yl}-(2,4,6-trimethylphenyl)-amine]	≤ 100	107 to 109
COc1ccc(OC)c(COc2ccc(S(=O)(=O)c3ccc(C)nc3Nc3c(C)cc(C)cc3C)cc2)c1 [Example 31, {3-[4-(2,5-Dimethoxybenzyloxy)-benzenesulfonyl]-6-methyl-pyridin-2-yl}-(2,4,6-trimethylphenyl)-amine]	≤ 100	128 to 130
COc1cccc(COc2ccc(S(=O)(=O)c3ccc(C)nc3Nc3c(C)cc(C)cc3C)cc2)c1OC [Example 32, {3-[4-(2,3-Dimethoxybenzyloxy)-benzenesulfonyl]-6-methylpyridin-2-yl}-(2,4,6-trimethylphenyl)-amine]	≤ 100	124 to 126
Cc1cc(C)c(Nc2nc(C)ccc2S(=O)(=O)c2ccc(OCc3cccc(F)c3F)cc2)c(C)c1 [Example 33, {3-[4-(2,3-Difluorobenzyloxy)-benzenesulfonyl]-6-methylpyridin-2-yl}-(2,4,6-trimethylphenyl)-amine]	≤ 100	136 to 138
Cc1cc(C)c(Nc2nc(C)ccc2S(=O)(=O)c2ccc(OCc3c(F)cccc3[N+](=O)[O-])cc2)c(C)c1 [Example 34, {3-[4-(2-Fluoro-6-nitrobenzyloxy)-benzenesulfonyl]-6-methyl-pyridin-2-yl}-(2,4,6-trimethylphenyl)-amine]	≤ 100	132 to 134
COc1ccc(C(C)=O)cc1COc1ccc(S(=O)(=O)c2ccc(C)nc2Nc2c(C)cc(C)cc2C)cc1 [Example 35]	100 to 500	141 to 143
Cc1cc(C)c(Nc2nc(C)ccc2S(=O)(=O)c2ccc(OCc3c(C)cccc3C)cc2)c(C)c1 [Example 36, {3-[4-(2,6-Dimethylbenzyloxy)-benzenesulfonyl]-6-methyl-pyridin-2-yl}-(2,4,6-trimethylphenyl)-amine]	≤ 100	136 to 138
Cc1cc(C)c(Nc2nc(C)ccc2S(=O)(=O)c2ccc(F)c(Cl)c2)c(C)c1 [Example 37, [3-(3-Chloro-4-fluorobenzenesulfonyl)-6-methylpyridin-2-yl]-(2,4,6-trimethylphenyl)-amine]	100 to 500	139 to 141
Cc1cc(C)c(Nc2nc(C)ccc2S(=O)(=O)c2ccc(Br)cc2)c(C)c1 [Example 46, [3-(4-Bromobenzenesulfonyl)-6-methylpyridin-2-yl]-(2,4,6-trimethylphenyl)-amine]	≤ 100	140 to 141
Cc1cc(C)c(Nc2nc(C)ccc2S(=O)(=O)c2ccc(C(=O)c3ccccc3)cc2)c(C)c1 [Example 54, {4-[6-Methyl-2-(2,4,6-trimethylphenylamino)-pyridine-3-sulfonyl]-phenyl}-phenyl-methanone]	≤ 100	222 to 225
CC(=O)OCc1ccc(S(=O)(=O)c2ccc(C)nc2Nc2c(C)cc(C)cc2C)cc1 [Example 55, Acetic acid 4-[6-methyl-2-(2,4,6-trimethylphenylamino)-pyridine-3-sulfonyl]-benzyl ester]	100 to 500	132 to 134
COc1cccc(S(=O)(=O)c2ccc(C)nc2Nc2c(C)cc(C)cc2C)c1 [Example 56, [3-(3-Methoxybenzenesulfonyl)-6-methylpyridin-2-yl]-(2,4,6-trimethylphenyl)-amine]	100 to 500	87 to 88
Cc1cc(C)c(Nc2nc(C)ccc2S(=O)(=O)c2cccc(O)c2)c(C)c1 [Example 57, 3-[6-Methyl-2-(2,4,6-trimethylphenylamino)-pyridine-3-sulfonyl]-phenol]	100 to 500	196 to 197
CCOc1cccc(S(=O)(=O)c2ccc(C)nc2Nc2c(C)cc(C)cc2C)c1 [Example 58, [3-(3-Ethoxybenzenesulfonyl)-6-methylpyridin-2-yl]-(2,4,6-trimethylphenyl)-amine]	100 to 500	96 to 97
COc1cc(COc2cccc(S(=O)(=O)c3ccc(C)nc3Nc3c(C)cc(C)cc3C)c2)cc(OC)c1 [Example 63, {3-[3-(3,5-Dimethoxybenzyloxy)-benzenesulfonyl]-6-methylpyridin-2-yl}-(2,4,6-trimethylphenyl)-amine]	100 to 500	120 to 121
